Laboratory results as given in US8012970B2, “Derivatives of 1-{[1,5-bis(4-chlorophenyl)-2-methyl-1H-pyrrol-3-yl]methyl}-4-methylpiperazine, synthesis process and uses thereof” (priority 2005, dated 2011).
In brackets after ≈: the same amount, converted by molar mass. Like-named read-outs stand apart in the source and are kept apart here.

How the values were obtained:
Type in all cases: cell-based
VERO cells = assay: Cytotoxicity on Vero cell monolayers (MNTD50); details: maximum 50% non-toxic dose, 5 days
Method: The cytotoxicity was evaluated on Vero cell monolayers (ICN-Flow). They were inoculated in 6-well plates each containing 9×10^4 cells and incubated in DMEM with 5% FCS for 24 h at 37° C. in a 5% CO2 incubator. After 24 h of culture, the medium was changed and a new medium containing decreasing doses of the substances under study was added.
After 5 days, the cells were trypsinized and counted in a Neubauer chamber under a light microscope. All the tests were done in triplicate. The maximum 50% non-toxic dose (MNTD50) was defined as the drug concentration that decreased cell multiplication less than 50% with respect to the control.

M. tuberculosis 103471 = assay: Antimycobacterial activity, MIC in Middlebrook 7H9 broth (NCCLS procedure); details: for MIC: Mycobacterium tuberculosis, 103471, read-out: M. tuberculosis 103471 MIC (μg/mL); for M. tuberculosis 103471 MIC: extracellular M. tuberculosis 103471
M. smegmatis 103599 = assay: Antimycobacterial activity toward atypical mycobacteria, MIC in broth
M. marinum 6423 = assay: as above
M. avium 103317 = assay: as above
[1] = tested on: intracellular M. tuberculosis; assay: Inhibitory activity on intramacrophagic mycobacteria in U937 cells differentiated into macrophages; details: Mycobacterium tuberculosis, read-out: MIC (μg/mL) Inhibition of intramacrophagic mycobacteria
Method: Inhibitory Activity of 6e and 7c on Intramacrophagic Mycobacteria.
The bactericidal activity of such compounds on intracellular mycobacteria was studied on U937 cells (INC-FLOW), a human hystiocytic cell line. Cells were differentiated into macrophages with 20 ng/mL of phorbol myristate acetate (PMA, Sigma) and grown in RPMI 1640 medium with 10% fetal calf serum.

[2] = Mycolicibacterium smegmatis, 103599; read-out: MIC (μg/mL) M. smegmatis 103599
[3] = Mycobacterium marinum, 6423; read-out: MIC (μg/mL) M. marinum 6423
[4] = Mycobacterium avium, 103317; read-out: MIC (μg/mL) M. avium 103317

SMILES	MNTD50 (μg/mL) VERO cells (VERO cells)	MIC (M. tuberculosis 103471)	MIC (M. smegmatis 103599; [2])	MIC (M. marinum 6423; [3])	MIC (M. avium 103317; [4])	M. tuberculosis 103471 MIC (M. tuberculosis 103471)	MIC (μg/mL) M. smegmatis 103599 (M. smegmatis 103599)	MIC (μg/mL) M. marinum 6423 (M. marinum 6423)	MIC (μg/mL) M. avium 103317 (M. avium 103317)	MIC [1]	MIC (M. smegmatis 103599; Mycolicibacterium smegmatis, 103599, read-out: MIC (μg/mL) M. smegmatis 103599)	MIC (M. marinum 6423; Mycobacterium marinum, 6423, read-out: MIC (μg/mL) M. marinum 6423)	MIC (M. avium 103317; Mycobacterium avium, 103317, read-out: MIC (μg/mL) M. avium 103317)
Cc1c(CN2CCN(C)CC2)cc(-c2ccc(Cl)cc2)n1-c1ccc(Cl)cc1 [BM212, 1-{[1,5-bis(4-chlorophenyl)-2-methyl-1H-pyrrol-3-yl]methyl}-4-methylpiperazine]	4 µg/mL	0.7 µg/mL (≈ 1.69 µM)	25 µg/mL (≈ 60.3 µM)	100 µg/mL (≈ 241 µM)	0.4 µg/mL (≈ 0.965 µM)	–	–	–	–	–	–	–	–
Cc1c(CN2CCSCC2)cc(-c2ccccc2Cl)n1-c1ccc(F)cc1 [Compound 6a]	4 µg/mL	–	–	–	–	4 µg/mL	>16 µg/mL	>16 µg/mL	16 µg/mL (≈ 39.9 µM)	–	–	–	–
Cc1c(CN2CCN(C)CC2)cc(-c2ccccc2Cl)n1-c1ccc(F)cc1 [Compound 6b]	2 µg/mL	–	–	–	–	8 µg/mL	>16 µg/mL	>16 µg/mL	16 µg/mL (≈ 40.2 µM)	–	–	–	–
Cc1c(CN2CCSCC2)cc(-c2ccccc2F)n1-c1ccc(F)cc1 [Compound 6c]	16 µg/mL	–	–	–	–	0.5 µg/mL	>16 µg/mL	>16 µg/mL	16 µg/mL (≈ 41.6 µM)	–	–	–	–
Cc1c(CN2CCN(C)CC2)cc(-c2ccccc2F)n1-c1ccc(F)cc1 [Compound 6d]	4 µg/mL	–	–	–	–	16 µg/mL	>16 µg/mL	>16 µg/mL	>16 µg/mL	–	–	–	–
Cc1ccc(-c2cc(CN3CCSCC3)c(C)n2-c2ccc(F)cc2)cc1 [Compound 6e, N-(p-fluorophenyl)-2-methyl-3-thiomorpholinomethyl-5-(p-methylphenyl)pyrrole]	64 µg/mL	0.4 µg/mL (≈ 1.05 µM)	16 µg/mL (≈ 42 µM)	8 µg/mL (≈ 21 µM)	8 µg/mL (≈ 21 µM)	–	–	–	–	3 µg/mL (≈ 7.88 µM)	–	–	–
Cc1ccc(-c2cc(CN3CCN(C)CC3)c(C)n2-c2ccc(F)cc2)cc1 [Compound 6f]	8 µg/mL	–	–	–	–	4 µg/mL	8 µg/mL (≈ 21.2 µM)	>16 µg/mL	4 µg/mL (≈ 10.6 µM)	–	–	–	–
Cc1c(CN2CCSCC2)cc(-c2ccc(Cl)cc2Cl)n1-c1ccc(F)cc1 [Compound 6g]	64 µg/mL	–	–	–	–	2 µg/mL	>16 µg/mL	>16 µg/mL	4 µg/mL (≈ 9.19 µM)	–	–	–	–
Cc1c(CN2CCN(C)CC2)cc(-c2ccc(Cl)cc2Cl)n1-c1ccc(F)cc1 [Compound 6h]	16 µg/mL	–	–	–	–	8 µg/mL	>16 µg/mL	>16 µg/mL	2 µg/mL (≈ 4.63 µM)	–	–	–	–
Cc1c(CN2CCSCC2)cc(-c2ccc(F)cc2F)n1-c1ccc(F)cc1 [Compound 6i]	16 µg/mL	–	–	–	–	0.5 µg/mL	>16 µg/mL	16 µg/mL (≈ 39.8 µM)	16 µg/mL (≈ 39.8 µM)	–	–	–	–
Cc1c(CN2CCN(C)CC2)cc(-c2ccc(F)cc2F)n1-c1ccc(F)cc1 [Compound 6j]	8 µg/mL	–	–	–	–	4 µg/mL	>16 µg/mL	>16 µg/mL	16 µg/mL (≈ 40.1 µM)	–	–	–	–
Cc1c(CN2CCSCC2)cc(-c2cccc3ccccc23)n1-c1ccc(F)cc1 [Compound 6k]	>128 µg/mL	–	–	–	–	>16 µg/mL	>16 µg/mL	>16 µg/mL	>16 µg/mL	–	–	–	–
Cc1c(CN2CCN(C)CC2)cc(-c2cccc3ccccc23)n1-c1ccc(F)cc1 [Compound 6l]	4 µg/mL	–	–	–	–	16 µg/mL	>16 µg/mL	16 µg/mL (≈ 38.7 µM)	8 µg/mL (≈ 19.3 µM)	–	–	–	–
Cc1c(CN2CCSCC2)cc(-c2ccc(F)cc2)n1-c1ccccc1Cl [Compound 7a]	8 µg/mL	–	–	–	–	2 µg/mL	>16 µg/mL	>16 µg/mL	>16 µg/mL	–	–	–	–
Cc1c(CN2CCN(C)CC2)cc(-c2ccc(F)cc2)n1-c1ccccc1Cl [Compound 7b]	8 µg/mL	–	–	–	–	4 µg/mL	>16 µg/mL	>16 µg/mL	>16 µg/mL	–	–	–	–
Cc1c(CN2CCSCC2)cc(-c2ccc(F)cc2)n1-c1ccccc1F [Compound 7c, N-(o-fluorophenyl)-2-methyl-3-thiomorpholinomethyl-5-(p-fluorophenyl)pyrrole]	8 µg/mL	0.5 µg/mL (≈ 1.3 µM)	8 µg/mL (≈ 20.8 µM)	> 16 µg/mL	8 µg/mL (≈ 20.8 µM)	–	–	–	–	3 µg/mL (≈ 7.8 µM)	–	–	–
Cc1c(CN2CCN(C)CC2)cc(-c2ccc(F)cc2)n1-c1ccccc1F [Compound 7d]	8 µg/mL	–	–	–	–	8 µg/mL	0.3 µg/mL (≈ 0.786 µM)	>16 µg/mL	16 µg/mL (≈ 41.9 µM)	–	–	–	–
Cc1ccc(-n2c(-c3ccc(F)cc3)cc(CN3CCSCC3)c2C)cc1 [Compound 7e]	8 µg/mL	–	–	–	–	4 µg/mL	16 µg/mL (≈ 42 µM)	8 µg/mL (≈ 21 µM)	8 µg/mL (≈ 21 µM)	–	–	–	–
Cc1ccc(-n2c(-c3ccc(F)cc3)cc(CN3CCN(C)CC3)c2C)cc1 [Compound 7f]	8 µg/mL	–	–	–	–	16 µg/mL	>16 µg/mL	8 µg/mL (≈ 21.2 µM)	16 µg/mL (≈ 42.4 µM)	–	–	–	–
Cc1c(CN2CCSCC2)cc(-c2ccc(F)cc2)n1-c1ccc(Cl)cc1Cl [Compound 7g]	4 µg/mL	–	–	–	–	1 µg/mL	16 µg/mL (≈ 36.7 µM)	8 µg/mL (≈ 18.4 µM)	2 µg/mL (≈ 4.59 µM)	–	–	–	–
Cc1c(CN2CCN(C)CC2)cc(-c2ccc(F)cc2)n1-c1ccc(Cl)cc1Cl [Compound 7h]	2 µg/mL	–	–	–	–	4 µg/mL	>16 µg/mL	8 µg/mL (≈ 18.5 µM)	4 µg/mL (≈ 9.25 µM)	–	–	–	–
Cc1c(CN2CCSCC2)cc(-c2ccc(F)cc2)n1-c1ccc(F)cc1F [Compound 7i]	16 µg/mL	–	–	–	–	2 µg/mL	>16 µg/mL	16 µg/mL (≈ 39.8 µM)	16 µg/mL (≈ 39.8 µM)	–	–	–	–
Cc1c(CN2CCN(C)CC2)cc(-c2ccc(F)cc2)n1-c1ccc(F)cc1F [Compound 7j]	16 µg/mL	–	–	–	–	16 µg/mL	>16 µg/mL	16 µg/mL (≈ 40.1 µM)	16 µg/mL (≈ 40.1 µM)	–	–	–	–
Cc1c(CN2CCSCC2)cc(-c2ccc(F)cc2)n1-c1cccc2ccccc12 [Compound 7k]	2 µg/mL	–	–	–	–	4 µg/mL	>16 µg/mL	16 µg/mL (≈ 38.4 µM)	8 µg/mL (≈ 19.2 µM)	–	–	–	–
Cc1c(CN2CCN(C)CC2)cc(-c2ccc(F)cc2)n1-c1cccc2ccccc12 [Compound 7l]	4 µg/mL	–	–	–	–	4 µg/mL	>16 µg/mL	8 µg/mL (≈ 19.3 µM)	8 µg/mL (≈ 19.3 µM)	–	–	–	–
NNC(=O)c1ccncc1 [Isoniazid, reference compound]	32 µg/mL	0.25 µg/mL (≈ 1.82 µM)	–	–	–	–	–	–	–	–	64 µg/mL (≈ 467 µM)	16 µg/mL (≈ 117 µM)	32 µg/mL (≈ 233 µM)
CO[C@H]1/C=C/O[C@@]2(C)Oc3c(C)c(O)c4c(O)c(c(/C=N/N5CCN(C)CC5)c(O)c4c3C2=O)NC(=O)/C(C)=C\C=C\[C@H](C)[C@H](O)[C@@H](C)[C@@H](O)[C@@H](C)[C@H](OC(C)=O)[C@@H]1C [Rifampin, reference compound]	64 µg/mL	0.3 µg/mL (≈ 0.365 µM)	32 µg/mL (≈ 38.9 µM)	0.6 µg/mL (≈ 0.729 µM)	0.3 µg/mL (≈ 0.365 µM)	0.3 µg/mL	–	–	–	3 µg/mL (≈ 3.65 µM)	–	–	–
[H]/N=C(/N)N[C@H]1[C@H](O)[C@@H](O)[C@H](O[C@@H]2O[C@@H](C)[C@](O)(C=O)[C@H]2O[C@@H]2O[C@@H](CO)[C@H](O)[C@@H](O)[C@@H]2NC)[C@@H](N/C(N)=N\[H])[C@@H]1O [Streptomycin, reference compound]	>64 µg/mL	0.5 µg/mL (≈ 0.86 µM)	8 µg/mL (≈ 13.8 µM)	32 µg/mL (≈ 55 µM)	8 µg/mL (≈ 13.8 µM)	–	–	–	–	–	–	–	–
